# Literature values as cited in patent US20190151329A1, “THERAPEUTIC USE OF DIAMINOPHENOTHIAZINES” (WisTa Laboratories Ltd., priority 2007, published 2019).
# Read-outs that look alike come from different tables or passages of the source.
# Key:
# [1] = cited from earlier work; for Blood Ox-MT concentration: human whole blood
# [2] = cited from earlier work
# [3] = rats; IV; within 2 minutes; cited from earlier work
# [4] = repeat dose 15 mg/24 hr, day 14
# [5] = repeat dose 15 mg/24 hr, day 21
# [6] = repeat dose 300 mg/24 hr, day 7
# [7] = repeat dose 300 mg/24 hr, day 14
# [8] = repeat dose 300 mg/24 hr, day 21
structure (smiles),measurement,setting,value
"CN(C)c1ccc2nc3ccc(=[N+](C)C)cc-3sc2c1 [MTC, methylthioninium chloride]",Blood Ox-MT concentration,"[1]; 100 mg MTC IV, 1.01 hr",0.41 µmol/L
same,Blood Ox-MT concentration,"[1]; 100 mg MTC IV, 1.99 hr",0.26 µmol/L
same,Blood Ox-MT concentration,"[1]; 100 mg MTC IV, 4 hr",0.18 µmol/L
same,Blood Ox-MT concentration,"[1]; 100 mg MTC oral (mean of with and without Mesna), 0 hr",0 µmol/L
same,Blood Ox-MT concentration,"[1]; 100 mg MTC oral (mean of with and without Mesna), 0.09 hr",0.00064 µmol/L
same,Blood Ox-MT concentration,"[1]; 100 mg MTC oral (mean of with and without Mesna), 0.15 hr",0.0011 µmol/L
same,Blood Ox-MT concentration,"[1]; 100 mg MTC oral (mean of with and without Mesna), 0.24 hr",0.0064 µmol/L
same,Blood Ox-MT concentration,"[1]; 100 mg MTC oral (mean of with and without Mesna), 0.33 hr",0.017 µmol/L
same,Blood Ox-MT concentration,"[1]; 100 mg MTC oral (mean of with and without Mesna), 0.5 hr",0.041 µmol/L
same,Blood Ox-MT concentration,"[1]; 100 mg MTC oral (mean of with and without Mesna), 0.83 hr",0.055 µmol/L
same,Blood Ox-MT concentration,"[1]; 100 mg MTC oral (mean of with and without Mesna), 1.01 hr",0.064 µmol/L
same,Blood Ox-MT concentration,"[1]; 100 mg MTC oral (mean of with and without Mesna), 1.99 hr",0.069 µmol/L
same,Blood Ox-MT concentration,"[1]; 100 mg MTC oral (mean of with and without Mesna), 4 hr",0.038 µmol/L
same,% of dose excreted in urine at 24 hr,"[1]; human, 100 mg MTC, IV",28.6 % of dose
same,AUC,"[1]; human, 100 mg MTC, IV",0.134 µmol/min/mL
same,Cl (clearance),"[1]; human, 100 mg MTC, IV",3 L/h
same,Estimated elimination T½: blood (1-4 hr),"[1]; human, 100 mg MTC, IV",5.25 h
same,% of dose excreted in urine at 24 hr,"[1]; human, 100 mg MTC, Oral",18.6 % of dose
same,AUC,"[1]; human, 100 mg MTC, Oral",0.011 µmol/min/mL
same,Estimated elimination T½: urine (4-24 hr),"[1]; human, 100 mg MTC, Oral",6.6 h
same,fraction of total MT excreted in the urine in the L-MB form,"[1]; human, did not differ between oral and IV dosing",approximately ⅓
same,"24 hr urinary excretion, L-MT (summary line)",[2]; repeat dose 15 mg/24 hr,7.2 mg
same,"24 hr urinary excretion, Ox-MT (summary line)",[2]; repeat dose 15 mg/24 hr,5.8 mg
same,"% of total urinary excretion, L-MT",[2]; repeat dose 15 mg/24 hr,55.3%
same,"% of total urinary excretion, Ox-MT",[2]; repeat dose 15 mg/24 hr,44.8%
same,"F (apparent bioavailability), L-MT",[2]; repeat dose 15 mg/24 hr,0.48
same,"F (apparent bioavailability), Ox-MT",[2]; repeat dose 15 mg/24 hr,0.39
same,"24-hr urinary excretion, L-MT","[2]; repeat dose 15 mg/24 hr, day 7",7.2 mg
same,"24-hr urinary excretion, Ox-MT","[2]; repeat dose 15 mg/24 hr, day 7",6.1 mg
same,"24-hr urinary excretion, L-MT",[2]; [4],8 mg
same,"24-hr urinary excretion, Ox-MT",[2]; [4],5.3 mg
same,"24-hr urinary excretion, L-MT",[2]; [5],6.4 mg
same,"24-hr urinary excretion, Ox-MT",[2]; [5],6.1 mg
same,"24 hr urinary excretion, L-MT (summary line)",[2]; repeat dose 300 mg/24 hr,69.2 mg
same,"24 hr urinary excretion, Ox-MT (summary line)",[2]; repeat dose 300 mg/24 hr,43.4 mg
same,"% of total urinary excretion, L-MT",[2]; repeat dose 300 mg/24 hr,61.5%
same,"% of total urinary excretion, Ox-MT",[2]; repeat dose 300 mg/24 hr,38.6%
same,"F (apparent bioavailability), L-MT",[2]; repeat dose 300 mg/24 hr,0.23
same,"F (apparent bioavailability), Ox-MT",[2]; repeat dose 300 mg/24 hr,0.14
same,"24-hr urinary excretion, L-MT",[2]; [6],75.6 mg
same,"24-hr urinary excretion, Ox-MT",[2]; [6],43.9 mg
same,"24-hr urinary excretion, L-MT",[2]; [7],71.6 mg
same,"24-hr urinary excretion, Ox-MT",[2]; [7],41.1 mg
same,"24-hr urinary excretion, L-MT",[2]; [8],60.4 mg
same,"24-hr urinary excretion, Ox-MT",[2]; [8],45.2 mg
same,"% of total urinary excretion, L-MT",[2]; single dose 25 mg,15.8%
same,"% of total urinary excretion, Ox-MT",[2]; single dose 25 mg,84.2%
same,"F (apparent bioavailability), L-MT",[2]; single dose 25 mg,0.11
same,"F (apparent bioavailability), Ox-MT",[2]; single dose 25 mg,0.60
same,"F (apparent bioavailability), Total-MT",[2]; single dose 25 mg,0.71
same,"urinary excretion, L-MT",[2]; single dose 25 mg,2.8 mg
same,"urinary excretion, Ox-MT",[2]; single dose 25 mg,14.9 mg
same,"urinary excretion, Total-MT",[2]; single dose 25 mg,17.7 mg
same,"% of total urinary excretion, L-MT",[2]; single dose 50 mg,8.8%
same,"% of total urinary excretion, Ox-MT",[2]; single dose 50 mg,91.2%
same,"F (apparent bioavailability), L-MT",[2]; single dose 50 mg,0.054
same,"F (apparent bioavailability), Ox-MT",[2]; single dose 50 mg,0.56
same,"F (apparent bioavailability), Total-MT",[2]; single dose 50 mg,0.62
same,"urinary excretion, L-MT",[2]; single dose 50 mg,2.7 mg
same,"urinary excretion, Ox-MT",[2]; single dose 50 mg,28.1 mg
same,"urinary excretion, Total-MT",[2]; single dose 50 mg,30.8 mg
same,"% of total urinary excretion, L-MT",[2]; single dose 100 mg,15.2%
same,"% of total urinary excretion, Ox-MT",[2]; single dose 100 mg,84.8%
same,"F (apparent bioavailability), L-MT",[2]; single dose 100 mg,0.060
same,"F (apparent bioavailability), Ox-MT",[2]; single dose 100 mg,0.34
same,"F (apparent bioavailability), Total-MT",[2]; single dose 100 mg,0.40
same,"urinary excretion, L-MT",[2]; single dose 100 mg,6 mg
same,"urinary excretion, Ox-MT",[2]; single dose 100 mg,33.5 mg
same,"urinary excretion, Total-MT",[2]; single dose 100 mg,39.5 mg
same,dose recovered from the major organs,[3],approximately 25%
